Experimental data taken from PubChem BioAssay AID2060599 (Molecular Pharmacology Branch, DTP, NCI, 2025).

System: 817829-284-R-J1-PDC complex spheroids, viability
Assay: Anticancer human tumor 817829-284-R-J1-PDC patient-derived colon adenocarcinoma cell line growth inhibition [CLK]
Conditions: for viability, T/C: stronger effect = lower value; active = viability on the fitted dose curve at most 10% of control; inactive = the rest
Description: A high-throughput screen of multi-cell type tumor spheroids was designed to identify active combinations of […] and targeted small molecules. Complex spheroids include a stromal component modeled by human endothelial cells (HUVEC) and fibroblasts modeled by human mesenchymal stem cells (MSCs). The concentration ranges selected for each drug and investigational agent were based upon clinically achievable concentrations if the clinical Cmax of the agent was known.
Compounds. The drugs and investigational agents: cirtuvivint (SM08502; NSC835563), CC-671 (NSC850746), vemurafenib (NSC761431), tapotoclax (NSC804041), sotorasib (NSC818433), adagrasib (NSC831453), MRTX-1133 (NSC836407), BAY2416964 (NSC825713), copanlisib (NSC816437), inavolisib (NSC800729), abemaciclib (NSC768073), osimertinib (NSC779217), entinostat (NSC756642), eltanexor (KPT-8602, NSC794443), venetoclax (NSC766270), ceralasertib (NSC777638), bortezomib (NSC756655), olaparib (NSC753686), talazoparib (NSC767125), alisertib (NSC759677), peposertib (NSC802822), gemcitabine (NSC613327), 5-fluorouracil (NSC19893), SN-38 (NSC673596), oxaliplatin (NSC266046), paclitaxel (NSC125973), and doxorubicin (NSC123127), were obtained from the National Cancer Institute (NCI) Developmental Therapeutics Program Chemical Repository. The FDA-approved anticancer drug set is available from the Developmental Therapeutics Program at https://dtp.cancer.gov/organization/dscb/obtaining/available plates.htm. […] The stock solutions were prepared in dimethyl sulfoxide (DMSO, Sigma-Aldrich, St. Louis, MO, cat. D2650), except for the platinum complexes which were prepared in saline (Quality Biological, Gaithersburg, MD, cat. 114-055-101), at 800-fold the tested concentration and stored at -70 degrees C prior to their use. All drugs and investigational agents were tested over a range starting from a high concentration at or near the clinical Cmax and decreasing in half-log increments. If the clinical Cmax for an agent had not been determined, the highest concentration tested was 10 microM.
Cell Culture. All cells were maintained in an incubator at 37 degrees C and 5% CO2 with 95% humidity. The PDC lines were cultured according to standard operating procedures established by the NCI PDMR. Briefly, all PDCs were thawed and cultured in Matrigel-coated flasks prepared with a working solution of 1X Ham's F-12 nutrient mix, without supplementation (Invitrogen, Waltham, MA, cat. 11765054), 100 U/mL penicillin-streptomycin (Invitrogen, cat. 15140122), and 2.5% Matrigel (Corning Inc., Corning, NY, cat. 354248) for the first three passages. The 947758-054-R-J2-PDC line was cultured in 6B/Colon 1A media, which includes advanced DMEM/F-12 (Thermo Fisher Scientific, cat. 12634028), 10 mM HEPES (Thermo Fisher Scientific, cat. 15630080), 1X GlutaMAX supplement (Thermo Fisher Scientific, cat. 35050061), 0.1 mg/mL primocin (InvivoGen, cat. ant-pm-2), 10% defined fetal bovine serum, heat inactivated (HyClone Laboratories Inc., cat. SH30070.03HI), 1.25 mM N-Acetyl-L-cysteine (Sigma-Aldrich, cat. A9165), 10 mM nicotinamide (Sigma-Aldrich, cat. N0636), 1X B-27 supplement (Thermo Fisher Scientific, cat. 17504044), 1X N-2 supplement (Thermo Fisher Scientific, cat. 17502048), and 10 microM Y-27632 dihydrochloride (Tocris Bioscience, cat. 1254). The 876862-298-R-J1-PDC was cultured in 6E media, which includes all 6B/Colon 1A media components plus 50% L-WRN conditioned media (ATCC, cat. CRL-3276), 50 ng/mL recombinant human EGF recombinant protein (hEGF; Thermo Fisher Scientific, cat. PHG0311), 10 ng/mL recombinant human fibroblast growth factor 10 (hGFG-10; PeproTech, cat. 100-26), 1 ng/mL recombinant human fibroblast growth factor 2 (hFGF-2; PeproTech, cat. 100-18B), and 1 µM prostaglandin E2 (PGE2; Tocris, cat. 2296). The 227483-062-R1-J1-PDC line was cultured in Panc media, containing all 6E components except hFGF-2, with the addition of 500 nM SB-431542 (Selleckchem, cat. S1067) and 10 nM gastrin (Tocris, cat. 3006). […]

[1] = curve of first compound, second compound 0.0316 µM
[2] = curve of first compound, second compound 0.1 µM
[3] = curve of first compound, second compound 0.316 µM
[4] = curve of first compound, second compound 1 µM
[5] = curve of first compound, second compound 3.16 µM
[6] = curve of first compound, second compound 10 µM
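Also: spheroids exposed to the agents for seven days before readout.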

CC(C)CC(NC(=O)C(Cc1ccccc1)NC(=O)c1cnccn1)B(O)O (stereo not drawn) + CN1CCN(c2cc(C(=O)Nc3cc4cc(-c5cnn(C)c5)ccc4cn3)ccn2)CC1
active: viability, T/C (second compound 0.0316 µM, first compound 0.003 µM) 0.32% | viability, T/C (second compound 0.0316 µM, first compound 0.00949 µM) 0.15% | viability, T/C (second compound 0.0316 µM, first compound 0.03 µM) 0.1% | viability, T/C (second compound 0.0316 µM, first compound 0.0949 µM) 0.08% | viability, T/C (second compound 0.0316 µM, first compound 0.3 µM) 0.06% | viability, T/C (second compound 0.1 µM, first compound 0.000949 µM) 8.37% | viability, T/C (second compound 0.1 µM, first compound 0.003 µM) 0.1% | viability, T/C (second compound 0.1 µM, first compound 0.00949 µM) 0.11% | viability, T/C (second compound 0.1 µM, first compound 0.03 µM) 0.08% | viability, T/C (second compound 0.1 µM, first compound 0.0949 µM) 0.06% | viability, T/C (second compound 0.1 µM, first compound 0.3 µM) 0.06% | viability, T/C (second compound 0.316 µM, first compound 0.000949 µM) 0.43% | viability, T/C (second compound 0.316 µM, first compound 0.003 µM) 0.07% | viability, T/C (second compound 0.316 µM, first compound 0.00949 µM) 0.09% | viability, T/C (second compound 0.316 µM, first compound 0.03 µM) 0.04% | viability, T/C (second compound 0.316 µM, first compound 0.0949 µM) 0.05% | viability, T/C (second compound 0.316 µM, first compound 0.3 µM) 0.05% | viability, T/C (second compound 1 µM, first compound 0.000949 µM) 0.08% | viability, T/C (second compound 1 µM, first compound 0.003 µM) 0.06% | viability, T/C (second compound 1 µM, first compound 0.00949 µM) 0.05% | viability, T/C (second compound 1 µM, first compound 0.03 µM) 0.04% | viability, T/C (second compound 1 µM, first compound 0.0949 µM) 0.05% | viability, T/C (second compound 1 µM, first compound 0.3 µM) 0.05% | viability, T/C (second compound 3.16 µM, first compound 0.000949 µM) 0.07% | viability, T/C (second compound 3.16 µM, first compound 0.003 µM) 0.06% | viability, T/C (second compound 3.16 µM, first compound 0.00949 µM) 0.06% | viability, T/C (second compound 3.16 µM, first compound 0.03 µM) 0.04% | viability, T/C (second compound 3.16 µM, first compound 0.0949 µM) 0.07% | viability, T/C (second compound 3.16 µM, first compound 0.3 µM) 0.07% | viability, T/C (second compound 10 µM, first compound 0.000949 µM) 0.03% | viability, T/C (second compound 10 µM, first compound 0.003 µM) 0.06% | viability, T/C (second compound 10 µM, first compound 0.00949 µM) 0.09% | viability, T/C (second compound 10 µM, first compound 0.03 µM) 0.09% | viability, T/C (second compound 10 µM, first compound 0.0949 µM) 0.15% | viability, T/C (second compound 10 µM, first compound 0.3 µM) 0.11%
< 0.949 nM: IC50 [2] | IC50 [3] | IC50 [4] | IC50 [5] | IC50 [6]
inactive: viability, T/C (second compound 0.0316 µM, first compound 0.000949 µM) 56.9%
1.09 nM: IC50 [1]

Nc1ccccc1NC(=O)c1ccc(CNC(=O)OCc2cccnc2)cc1
inactive: viability, T/C (compound 0.0316 µM) 89% | viability, T/C (compound 0.1 µM) 85.3% | viability, T/C (compound 0.316 µM) 53.5% | viability, T/C (compound 1 µM) 35.9% | viability, T/C (compound 3.16 µM) 10%
active: viability, T/C (compound 10 µM) 0.1%
465 nM: IC50 (curve of compound)

COc1ccc([C@@H](O)c2cc(-c3ncnc4cc(N5CCOCC5)ccc34)c(F)cc2Cl)nn1
1040 nM: IC50 (curve of compound)
inactive: viability, T/C (compound 0.0316 µM) 117% | viability, T/C (compound 0.1 µM) 105% | viability, T/C (compound 0.316 µM) 86.4% | viability, T/C (compound 1 µM) 48.6% | viability, T/C (compound 3.16 µM) 31.6% | viability, T/C (compound 10 µM) 21.2%

CCCS(=O)(=O)Nc1ccc(F)c(C(=O)c2c[nH]c3ncc(-c4ccc(Cl)cc4)cc23)c1F + CN1CCN(c2cc(C(=O)Nc3cc4cc(-c5cnn(C)c5)ccc4cn3)ccn2)CC1
inactive: viability, T/C (second compound 0.0316 µM, first compound 0.0316 µM) 53.5% | viability, T/C (second compound 0.0316 µM, first compound 0.1 µM) 41.8% | viability, T/C (second compound 0.0316 µM, first compound 0.316 µM) 39.8% | viability, T/C (second compound 0.0316 µM, first compound 1 µM) 43.8% | viability, T/C (second compound 0.0316 µM, first compound 3.16 µM) 35.6% | viability, T/C (second compound 0.0316 µM, first compound 10 µM) 18.4% | viability, T/C (second compound 0.1 µM, first compound 0.0316 µM) 19% | viability, T/C (second compound 0.1 µM, first compound 0.1 µM) 17.5% | viability, T/C (second compound 0.1 µM, first compound 0.316 µM) 14.2% | viability, T/C (second compound 0.1 µM, first compound 1 µM) 11.8%
< 31.6 nM: IC50 [1] | IC50 [2] | IC50 [3] | IC50 [4] | IC50 [5] | IC50 [6]
active: viability, T/C (second compound 0.1 µM, first compound 3.16 µM) 12.2% | viability, T/C (second compound 0.1 µM, first compound 10 µM) 3.08% | viability, T/C (second compound 0.316 µM, first compound 0.0316 µM) 1.39% | viability, T/C (second compound 0.316 µM, first compound 0.1 µM) 1.67% | viability, T/C (second compound 0.316 µM, first compound 0.316 µM) 1.88% | viability, T/C (second compound 0.316 µM, first compound 1 µM) 1.17% | viability, T/C (second compound 0.316 µM, first compound 3.16 µM) 1.2% | viability, T/C (second compound 0.316 µM, first compound 10 µM) 0.66% | viability, T/C (second compound 1 µM, first compound 0.0316 µM) 0.09% | viability, T/C (second compound 1 µM, first compound 0.1 µM) 0.11% | viability, T/C (second compound 1 µM, first compound 0.316 µM) 0.15% | viability, T/C (second compound 1 µM, first compound 1 µM) 0.09% | viability, T/C (second compound 1 µM, first compound 3.16 µM) 0.09% | viability, T/C (second compound 1 µM, first compound 10 µM) 0.08% | viability, T/C (second compound 3.16 µM, first compound 0.0316 µM) 0.09% | viability, T/C (second compound 3.16 µM, first compound 0.1 µM) 0.18% | viability, T/C (second compound 3.16 µM, first compound 0.316 µM) 0.1% | viability, T/C (second compound 3.16 µM, first compound 1 µM) 0.2% | viability, T/C (second compound 3.16 µM, first compound 3.16 µM) 0.13% | viability, T/C (second compound 3.16 µM, first compound 10 µM) 0.09% | viability, T/C (second compound 10 µM, first compound 0.0316 µM) 0.06% | viability, T/C (second compound 10 µM, first compound 0.1 µM) 0.08% | viability, T/C (second compound 10 µM, first compound 0.316 µM) 0.1% | viability, T/C (second compound 10 µM, first compound 1 µM) 0.18% | viability, T/C (second compound 10 µM, first compound 3.16 µM) 0.21% | viability, T/C (second compound 10 µM, first compound 10 µM) 0.17%
